What was measured:
[1] = target: T1, h-GABA-A α5β3γ2 (Homo sapiens (Human), UniProt P18507+P31644); assay: [3H]flumazenil competition binding assay, membranes of HEK293 cells expressing human GABAA receptors; conditions: displacement of [3H]flumazenil 0.5 nM, HEK293 cells expressing human receptors, mean of two determinations; read-out: Ki h-GABA-A α5β3γ2
In short: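 Displacement of [3H]flumazenil from membranes of HEK293 cells transiently expressing human α5β3γ2 receptors, in Krebs-tris buffer pH 7.5. Incubation to equilibrium, 1 h at 4° C., then filtration and scintillation counting. Ki is the mean of two determinations.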

[2] = target: T1, h-GABA-A α5β3γ2; assay: Two-electrode voltage clamp electrophysiology in Xenopus oocytes expressing GABAA receptors, modulation of GABA EC20 current; type: cell-based; conditions: Xenopus oocytes; for Efficacy (GABA) %: % modulation of GABA EC20 = 100*(Fold increase−1); for Fold increase h-GABA-A α5β3γ2 oocyte: GABA EC20, test compound at approx. 30 fold its Ki
In short: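 Values are % modulation of an EC20 GABA response, derived point by point from the ratio of compound-exposed versus control current traces (extremum taken, 100×(fold−1)). Recordings used oocytes injected with human α5, β3, γ2 mRNA, clamped at −80 mV at room temperature, at least 3 oocytes each.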

| Ki [1] | Efficacy (GABA) % [2] | Fold increase h-GABA-A α5β3γ2 oocyte [2] | Compound |
| --- | --- | --- | --- |
| 40.3 nM | 109% | 2.09 | CCc1onc(-c2ccc(C)nc2)c1COc1ccc(C(=O)NC2CCOCC2)nn1 [Example 121, 6-((5-ethyl-3-(6-methylpyridin-3-yl)isoxazol-4-yl)methoxy)-N-(tetrahydropyran-4-yl)pyridazine-3-carboxamide] |
| 26.4 nM | 126% | 2.26 | CCc1onc(-c2ccc(C)nc2)c1COc1ccc(C(=O)NC2(C)COC2)nn1 [Example 122, 6-((5-ethyl-3-(6-methylpyridin-3-yl)isoxazol-4-yl)methoxy)-N-(3-methyloxetan-3-yl)pyridazine-3-carboxamide] |
| 22.1 nM | 106% | 2.06 | CCc1onc(-c2ccc(C)nc2)c1COc1ccc(C(=O)NC2CC2)nn1 [Example 123, N-cyclopropyl-6-((5-ethyl-3-(6-methylpyridin-3-yl)isoxazol-4-yl)methoxy)pyridazine-3-carboxamide] |
| 36.6 nM | 47% | 1.47 | CCC[C@H](CO)NC(=O)c1ccc(OCc2c(-c3ccc(C)nc3)noc2C)nc1 [Example 124, (R)—N-(1-hydroxypentan-2-yl)-6-((5-methyl-3-(6-methylpyridin-3-yl)isoxazol-4-yl)methoxy)pyridine-3-carboxamide] |
| 59 nM | 142% | 2.42 | CCC[C@@H](CO)NC(=O)c1ccc(OCc2c(-c3ccc(C)nc3)noc2C(F)F)nc1 [Example 125, 6-((5-(difluoromethyl)-3-(6-methyl-3-pyridyl)isoxazol-4-yl)methoxy)-N-((1S)-1-(hydroxymethyl)butyl)pyridine-3-carboxamide] |
| 49.8 nM | 49% | 1.49 | Cc1ccc(-c2noc(C(F)F)c2COc2ccc(C(=O)NC3CCOCC3)cn2)cn1 [Example 126, 6-((5-(difluoromethyl)-3-(6-methyl-3-pyridyl)isoxazol-4-yl)methoxy)-N-tetrahydropyran-4-yl-pyridine-3-carboxamide] |
| 22.8 nM | 50% | 1.5 | Cc1ccc(-c2noc(C)c2COc2ccc(C(=O)N[C@H]3CCOC[C@@H]3O)cn2)cn1 [Example 127, N-((3R,4S)-3-hydroxytetrahydropyran-4-yl)-6-((5-methyl-3-(6-methyl-3-pyridyl)isoxazol-4-yl)methoxy)pyridine-3-carboxamide] |
| 6.1 nM | 107% | 2.07 | Cc1onc(-c2ccc(C3CC3)nc2)c1COc1ccc(C(=O)NC2CCOCC2)cn1 [Example 128, 6-((3-(6-cyclopropyl-3-pyridyl)-5-methyl-isoxazol-4-yl)methoxy)-N-tetrahydropyran-4-yl-pyridine-3-carboxamide] |
| 25.6 nM | 156% | 2.56 | CCC[C@@H](CO)NC(=O)c1ccc(OCc2c(-c3ccc(C4CC4)nc3)noc2C)nc1 [Example 129, 6-((3-(6-cyclopropyl-3-pyridyl)-5-methyl-isoxazol-4-yl)methoxy)-N-((1S)-1-(hydroxymethyl)butyl)pyridine-3-carboxamide] |
| 30.4 nM | 128% | 2.28 | Cc1onc(-c2ccc(C3CC3)nc2)c1COc1ccc(C(=O)NC2CCS(=O)(=O)CC2)cn1 [Example 130, 6-((3-(6-cyclopropyl-3-pyridyl)-5-methyl-isoxazol-4-yl)methoxy)-N-(1,1-dioxothian-4-yl)pyridine-3-carboxamide] |
| 26 nM | 51% | 1.51 | Cc1ccc(-c2noc(C)c2COc2ccc(C(=O)N[C@@H]3CCCC(F)(F)[C@H]3O)cn2)cn1 [Example 131, N-((1R,2S)-3,3-difluoro-2-hydroxycyclohexyl)-6-((5-methyl-3-(6-methylpyridin-3-yl)isoxazol-4-yl)methoxy)pyridine-3-carboxamide] |
| 37.7 nM | 64% | 1.64 | Cc1ccc(-c2noc(C)c2COc2ccc(C(=O)N[C@@H]3CCCC[C@H]3O)cn2)cn1 [Example 132, N-((1R,2R)-2-hydroxycyclohexyl)-6-((5-methyl-3-(6-methylpyridin-3-yl)isoxazol-4-yl)methoxy)pyridine-3-carboxamide] |
| 43.1 nM | 95% | 1.95 | Cc1ccc(-c2noc(C)c2COc2ccc(C(=O)N[C@H]3CCCC(F)(F)[C@@H]3O)cn2)cn1 [Example 133, N-((1S,2R)-3,3-difluoro-2-hydroxycyclohexyl)-6-((5-methyl-3-(6-methylpyridin-3-yl)isoxazol-4-yl)methoxy)pyridine-3-carboxamide] |
| 20.8 nM | 66% | 1.66 | Cc1ccc(-c2noc(C)c2COc2ccc(C(=O)N[C@@H]3CCOC[C@H]3O)cn2)cn1 [Example 134, N-((3S,4R)-3-hydroxytetrahydro-2H-pyran-4-yl)-6-((5-methyl-3-(6-methylpyridin-3-yl)isoxazol-4-yl)methoxy)pyridine-3-carboxamide] |
| 30.4 nM | 92% | 1.92 | Cc1ccc(-c2noc(C)c2COc2ccc(C(=O)N[C@H]3CCCC[C@@H]3O)cn2)cn1 [Example 135, N-((1S,2S)-2-hydroxycyclohexyl)-6-((5-methyl-3-(6-methylpyridin-3-yl)isoxazol-4-yl)methoxy)pyridine-3-carboxamide] |
| 14.8 nM | 54% | 1.54 | CNC(=O)c1ccc(OCc2c(-c3ccc(C)nc3)noc2C)nc1F [Example 136, 2-fluoro-N-methyl-6-((5-methyl-3-(6-methylpyridin-3-yl)isoxazol-4-yl)methoxy)pyridine-3-carboxamide] |
| 25.4 nM | 55% | 1.55 | COc1ccc(-c2noc(C)c2COc2ccc(C(=O)NC3CCOCC3)cn2)cn1 [Example 137, 6-((3-(6-methoxypyridin-3-yl)-5-methylisoxazol-4-yl)methoxy)-N-tetrahydropyran-4-yl-pyridine-3-carboxamide] |
| 93.8 nM | 46% | 1.46 | COc1ccc(-c2noc(C)c2COc2ccc(C(=O)NC(C)C)cn2)cn1 [Example 138, N-isopropyl-6-((3-(6-methoxypyridin-3-yl)-5-methylisoxazol-4-yl)methoxy)pyridine-3-carboxamide] |
| 19.4 nM | 152% | 2.52 | CCC[C@@H](CO)NC(=O)c1ccc(OCc2c(-c3ccc(OC)nc3)noc2C)nc1 [Example 139, (S)—N-(1-hydroxypentan-2-yl)-6-((3-(6-methoxypyridin-3-yl)-5-methylisoxazol-4-yl)methoxy)pyridine-3-carboxamide] |
| 56 nM | 13% | 1.13 | COc1ccc(-c2noc(C)c2COc2ccc(C(=O)N3CCS(=O)(=O)CC3)cn2)cn1 [Example 140, (1,1-dioxidothiomorpholino)(6-((3-(6-methoxypyridin-3-yl)-5-methylisoxazol-4-yl)methoxy)pyridin-3-yl)methanone] |
| 49.5 nM | 243% | 3.43 | CCC[C@@H](CO)NC(=O)c1ccc(OCc2c(-c3ccc(N(C)C)nc3)noc2C)nc1 [Example 141, (S)-6-((3-(6-(dimethylamino)pyridin-3-yl)-5-methylisoxazol-4-yl)methoxy)-N-(1-hydroxypentan-2-yl)nicotinamide] |
| 4.7 nM | 44% | 1.44 | COc1cc(OCc2c(-c3ccc(C)nc3)noc2C)ncc1C(=O)NC1CCOCC1 [Example 142, 4-methoxy-6-((5-methyl-3-(6-methylpyridin-3-yl)isoxazol-4-yl)methoxy)-N-(tetrahydropyran-4-yl)nicotinamide] |
| 14.5 nM | 20% | 1.2 | Cc1ncc(-c2noc(C)c2COc2ccc(C(=O)NC3CCOCC3)cn2)cc1F [Example 143, 6-((3-(5-fluoro-6-methyl-3-pyridyl)-5-methyl-isoxazol-4-yl)methoxy)-N-tetrahydropyran-4-yl-pyridine-3-carboxamide] |
| 13.6 nM | 15% | 1.15 | Cc1ncc(-c2noc(C)c2COc2ccc(C(=O)NC(C)C)cn2)cc1F [Example 144, 6((3-(5-fluoro-6-methyl-3-pyridyl)-5-methyl-isoxazol-4-yl)methoxy)-N-isopropyl-pyridine-3-carboxamide] |
| 29 nM | 144% | 2.44 | CCC[C@@H](CO)NC(=O)c1ccc(OCc2c(-c3cnc(C)c(F)c3)noc2C)nc1 [Example 145, 6-((3-(5-fluoro-6-methyl-3-pyridyl)-5-methyl-isoxazol-4-yl)methoxy)-N-((1S)-1-(hydroxymethyl)butyl)pyridine-3-carboxamide] |
| 10 nM | 78% | 1.78 | Cc1ccc(-c2noc(C)c2COc2ccc(C(=O)N[C@H]3CC[C@](C)(O)CC3)nn2)cn1 [Example 146] |
